Test: Plasma noribogaine glucuronide pharmacokinetics after single oral noribogaine doses in healthy volunteers
Type: in vivo, human
Settings: for AUC0-216 of noribogaine glucuronide / AUC0-∞ of noribogaine glucuronide / Cmax of noribogaine glucuronide / Tmax of noribogaine glucuronide / t1/2 of noribogaine glucuronide: healthy volunteers, mean (SD), n = 6
Method: Blood was obtained for pharmacokinetic assessments pre-dose and then at 0.25, 0.5, 0.75, 1.0, 1.25, 1.5, 2, 2.5, 3, 3.5, 4, 4.5, 5, 5.5, 6, 7, 8, 10, 12, 14, 18, 24, 30, 36, 48, 60, 72, 96, 120, 168 and 216 hours post-dose. Samples were centrifuged and plasma stored at −70° C. until analyzed. Block 24 hour urine collections were obtained following study drug administration for the 30 and 60 mg cohorts. Aliquots were frozen at −20° C. until analyzed.
Plasma noribogaine glucuronide concentrations were determined in the 30 mg and 60 mg dose groups using a validated sensitive LCMSMS method. Sample preparation involved deproteinization of plasma samples with acetonitrile, drying the samples under a stream of nitrogen and reconstitution of sample with acetonitrile:B.P. water (5:95, v/v) containing 0.1% (v/v) formic acid. The compounds were separated by a 150×2.0 mm Luna 5 μm C18 column and detected with a triple-quadrupole API 4000 or 5000 mass spectrometer using electrospray ionization in positive mode and multiple reaction monitoring. Noribogaine-d4 was used as the internal standard. The precursor-product ion transition values for noribogaine glucuronide were m/z 472.8→297.3, and for the internal standard noribogaine-d4 m/z 301.1→122.2. Analyst® software was used for data acquisition and processing. The ratio of the peak area of noribogaine glucuronide to the internal standard noribogaine-d4 was used for calibration and measurement of the unknown concentration of noribogaine glucuronide. The LLOQ was 0.050 ng/ml noribogaine glucuronide. The calibration curve was between 0.050 and 6.400 ng/ml noribogaine glucuronide. Mobile phases was the same as method A. Binary flow: Initial concentration was 6% mobile phase B; hold at 6% mobile phase B for 0.5 minutes and linear rise to 90% mobile phase B over 2 minutes; hold at 90% mobile phase B for 1 minute and then drop back to 6% mobile phase B over 0.01 minute. Equilibrate system for 3.5 minutes. Total run time was 7 minutes. The within- and between-day assay precision was <11%, and the within- and between-day assay accuracy was <10%.
Noribogaine and noribogaine glucuronide concentrations above the limit of quantification were used to calculate pharmacokinetic parameters using model-independent methods. The maximum plasma concentration (Cmax) and time to maximum plasma concentration (Tmax) were the observed values. Plasma concentration data in the post-distribution phase of the plasma concentration-time plot were fitted using linear regression to the formula ln C=ln Co−t.Kel, where Co was the zero-time intercept of the extrapolated terminal phase and Kel was the terminal elimination rate constant. […] The area under the concentration-time curve (AUC) from time zero to the last determined concentration-time point (tf) in the post distribution phase was calculated using the trapezoidal rule. The area under the curve from the last concentration-time point in the post distribution phase (Ctf) to time infinity was calculated from AUCt-∞=Ctf/Kel. The concentration used for Ctf was the last determined value above the LLOQ at the time point. The total AUC0-∞ was obtained by adding AUCtf and AUCt-∞. Noribogaine apparent clearance (CL/F) was determined using the formula CL/F=Dose/AUC0-∞×1000, and apparent volume of distribution (Vd/F) was determined using the formula Vd/F=(CL/F)/Kel. Total urine noribogaine was the sum of both analytes.

[1] = 30 mg and 60 mg noribogaine dose groups, plasma
[2] = after single oral 30 mg noribogaine, plasma
[3] = after single oral 60 mg noribogaine, plasma

In the case of `CC[C@H]1C[C@@H]2C[C@H]3c4[nH]c5ccc(OC6OC(C(=O)O)C(O)C(O)C6O)cc5c4CCN(C2)[C@@H]13` (some centres unmarked) [Noribogaine glucuronide, noribogaine glucuronide], the “Mean half-life of plasma noribogaine glucuronide” value (30 mg and 60 mg noribogaine dose groups) was 21 to 23 h, the “time by which noribogaine glucuronide was detected in all subjects” value [1] was ≤ 0.75 h and the “time of peak noribogaine glucuronide concentrations after noribogaine dosing” value [1] was 3 to 4 h. For the same molecule, the “AUC0-216 of noribogaine glucuronide” value [2] was 25.7 (9.1) ng · hr/ml, the “AUC0-∞ of noribogaine glucuronide” value [2] was 25.8 (9.3) ng · hr/ml and the “Cmax of noribogaine glucuronide” value [2] was 1.8 (0.6) ng/ml. The “Tmax of noribogaine glucuronide” value [2] was 3.0 (0.6) hr, the “t1/2 of noribogaine glucuronide” value [2] was 20.6 (4.9) hr and the “AUC0-216 of noribogaine glucuronide” value [3] was 65.0 (21.5) ng · hr/ml. For the same molecule, the “AUC0-∞ of noribogaine glucuronide” value [3] was 67.1 (21.9) ng · hr/ml, the “Cmax of noribogaine glucuronide” value [3] was 4.1 (1.2) ng/ml and the “Tmax of noribogaine glucuronide” value [3] was 3.8 (1.2) hr. For the same molecule, the “t1/2 of noribogaine glucuronide” value [3] was 23.1 (3.0) hr and the “proportion of noribogaine glucuronide Cmax and AUC relative to noribogaine” value (both dose groups (30 mg and 60 mg)) was 3-4%.
